Data published in patent US8883798B2, “Pyrimidine compounds inhibiting the formation of nitric oxide and prostaglandin E2, method of production thereof and use thereof” (Ustav Organicke Chemie a Biochemie Akademie Ved CR, V.V.I., priority 2011, dated 2014).

Columns and labels:
[1] = system: peritoneal cells of mice; test: Cell viability of mouse peritoneal cells (WST-1 kit); type: cell-based; conditions: Table 3B, substance 50 μmol·l^−1, 24 h
Procedure, shortened: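 C57BL/6 mouse peritoneal cells (1×10^6/mL) cultured 24 h with compounds at 50 μmol·l^−1. Viability read with WST-1 tetrazolium salt and expressed as percent of untreated control cells (100%).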

[2] = system: production of prostaglandin E2 (PGE2); test: Production of prostaglandin E2 (PGE2) in cultures of mouse peritoneal cells stimulated with LPS (ELISA kit); type: cell-based, mice; conditions: Table 3B, 6 h
Procedure, shortened: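 C57BL/6 mouse peritoneal cells (3×10^6/mL) stimulated with LPS (10 ng/mL). PGE2 measured by ELISA.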

[3] = system: production of nitric oxide (NO); test: Production of nitric oxide (NO) in cultures of mouse peritoneal cells stimulated with IFN-γ plus LPS (Griess reagent); type: cell-based, mice; conditions: Table 3B; substance 50 μmol·l^−1; IFN-g plus LPS; 24 h
Procedure, shortened: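 C57BL/6 mouse peritoneal cells (2×10^6/mL) stimulated with IFN-γ (5000 pg/mL) plus LPS (100 pg/mL), compounds at 50 μmol·l^−1. Nitrite measured by Griess reagent after 24 h, expressed as % of stimulated control (set 100%); IC50 is concentration reducing NO by 50%.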

Structure (SMILES)	Cell viabilities in % of the controls [1]	Production of prostaglandins IC50 (μmol · 1^−1) average value and range of values [2]	Production of nitric oxide in % of the controls [3]
CCCCc1c(-c2ccoc2)nc(N)nc1-c1ccsc1 [Substance 113]	101.51 ± 12.74; n = 8 % of the controls	85.05 ± 9.96; n = 4 μmol · 1^−1	63.79 ± 1.64; n = 6 % of the controls
CCCCc1c(-c2ccsc2)nc(N)nc1-c1ccsc1 [Substance 114]	118.67 ± 2.26; n = 8 % of the controls	37.00 ± 16.33; n = 4 μmol · 1^−1	70.51 ± 5.78; n = 4 % of the controls
CCCCc1c(Cl)nc(N)nc1-c1ccsc1 [Substance 115]	107.17 ± 2.03; n = 8 % of the controls	22.90 ± 11.94; n = 4 μmol · 1^−1	37.43 ± 8.29; n = 6 % of the controls
CCCCc1c(-c2ccccc2)nc(N)nc1-c1cc2ccccc2o1 [Substance 116]	95.24 ± 4.78; n = 8 % of the controls	49.17 ± 9.72; n = 4 μmol · 1^−1	72.69 ± 10.36; n = 4 % of the controls
CCCCc1c(-c2ccc(OC)cc2)nc(N)nc1-c1cc2ccccc2o1 [Substance 117]	75.92 ± 9.72; n = 8 % of the controls	64.65 ± 4.88; n = 2 μmol · 1^−1	89.91 ± 4.02; n = 6 % of the controls
CCCCc1c(-c2ccccn2)nc(N)nc1-c1cc2ccccc2o1 [Substance 118]	91.38 ± 4.41; n = 8 % of the controls	52.17 ± 14.96; n = 6 μmol · 1^−1	56.53 ± 3.33; n = 8 % of the controls
CCCCc1c(-c2cccnc2)nc(N)nc1-c1cc2ccccc2o1 [Substance 119]	76.10 ± 6.23; n = 8 % of the controls	71.89 ± 0.36; n = 2 μmol · 1^−1	70.13 ± 10.10; n = 6 % of the controls
CCCCc1c(-c2ccncc2)nc(N)nc1-c1cc2ccccc2o1 [Substance 120]	92.51 ± 2.77; n = 4 % of the controls	83.44 ± 11.03; n = 2 μmol · 1^−1	65.32 ± 3.72; n = 4 % of the controls
CCCCc1c(-c2cc3ccccc3o2)nc(N)nc1-c1cccs1 [Substance 121]	90.22 ± 7.99; n = 12 % of the controls	62.54 ± 21.79; n = 6 μmol · 1^−1	55.17 ± 7.88; n = 10 % of the controls
CCCCc1c(-c2ccco2)nc(N)nc1-c1cc2ccccc2o1 [Substance 122]	81.66 ± 4.41; n = 8 % of the controls	68.47 ± 8.71; n = 2 μmol · 1^−1	35.04 ± 5.71; n = 6 % of the controls
CCCCc1c(-c2ccoc2)nc(N)nc1-c1cc2ccccc2o1 [Substance 123]	42.62 ± 11.49; n = 12 % of the controls	35.10 ± 14.56; n = 4 μmol · 1^−1	11.15 ± 2.99; n = 6 % of the controls
CCCCc1c(-c2ccsc2)nc(N)nc1-c1cc2ccccc2o1 [Substance 124]	94.41 ± 9.01; n = 8 % of the controls	62.48 ± 5.45; n = 2 μmol · 1^−1	33.45 ± 13.04; n = 6 % of the controls
CCCCc1c(-c2cc3ccccc3o2)nc(N)nc1-c1cc2ccccc2o1 [Substance 125]	76.82 ± 8.89; n = 8 % of the controls	73.07 ± 1.91; n = 2 μmol · 1^−1	67.76 ± 6.80; n = 6 % of the controls
